Measured values published in patent US20240082341A1, “PEPTIDE FOR USE IN THE TREATMENT OR PREVENTION OF COVID-19” (Instytut Biochemii I Biofizyki Polskiej Akademii Nauk, priority 2020, published 2024).
Ends that are not written are not given here.

Target: RBD domain of the S1 subunit of viral S glycoprotein (Severe acute respiratory syndrome coronavirus 2, UniProt P0DTC2)
Experiment: Binding of the peptides to the RBD domain of viral S glycoprotein (microscale thermophoresis, MST)
Design: species or system SARS-CoV-2
Details: for binding strength compared with the native peptide (1d): RBD domain, comparison with peptide 1d

Compound | binding strength compared with the native peptide (1d) | Kd (peptide-RBD complex, 25° C., cell unit μM, read-out: KD (nM) Tmeasurement 25° C.) [µM]
NC(=O)C[C@H](NC(=O)CNC(=O)[C@H](Cc1ccc(O)cc1)NC(=O)[C@@H](N)CC(=O)O)C(=O)N[C@@H](Cc1c[nH]cn1)C(=O)N[C@@H](CCC(=O)O)C(=O)O [Peptide 2d, DYGNHE] | significantly higher | –
CSCC[C@H](N)C(=O)N[C@@H](Cc1ccc(O)cc1)C(=O)NCC(=O)N[C@@H](CC(N)=O)C(=O)N[C@@H](Cc1c[nH]cn1)C(=O)N[C@@H](CCC(=O)O)C(=O)O [Peptide J3.2, MYGNHE] | significantly higher | –
MYGNYE [Peptide J3.4, MYGNYE] | – | > 10
